Assays:
Experiment in all cases: Kinase selectivity, DiscoverX scanMAX Kinase assay panel (% control)
Assay type in all cases: binding
[1] = target: T1, kinases of the scanMAX Kinase assay panel (Homo sapiens, UniProt Q9UIK4); conditions: DAPK2; 1 uM
T1 construct: purchased DiscoverX Co. (contract measurement) scanMAX Kinase assay panel
Method: (§1) The following experiment was performed to evaluate the activity of the compounds of the present invention to inhibit many enzymes.
(§2) Particularly, the compounds of Examples 8, 64 and 104 were selected among all of those compounds of the invention. DiscoverX Co. was asked to measure the enzyme (kinase) selectivity, and the experiment was performed using scanMAX™ Kinase assay panel.
(§3) Wherein, the concentration of the drug treated to each enzyme was 1 uM in DMSO and the control percentage (% control) was determined by the following Equation 1. (example compound−positive control)/(negative control−positive control)×100 [Equation 1]
(§4) Herein, the positive control indicates the compound showing the % control of 0%, and the negative control indicates DMSO showing the % control of 100%. The enzyme selectivity in the present invention is defined as follows: When the % control for each enzyme is less than 35% (<35%), it is judged that the compound has the activity to the corresponding enzyme.

[2] = target: T2, kinases of the scanMAX Kinase assay panel (Homo sapiens, UniProt P08581, M1250T); conditions: MET(M1250T); 1 uM
T2 construct: purchased DiscoverX Co. (contract measurement) scanMAX Kinase assay panel
Method: as §1, §2, §3, §4

[3] = target: T3, kinases of the scanMAX Kinase assay panel (Homo sapiens, UniProt Q13163); conditions: MEK5; 1 uM
T3 construct: purchased DiscoverX Co. (contract measurement) scanMAX Kinase assay panel
T3 sequence (Q13163 1-448): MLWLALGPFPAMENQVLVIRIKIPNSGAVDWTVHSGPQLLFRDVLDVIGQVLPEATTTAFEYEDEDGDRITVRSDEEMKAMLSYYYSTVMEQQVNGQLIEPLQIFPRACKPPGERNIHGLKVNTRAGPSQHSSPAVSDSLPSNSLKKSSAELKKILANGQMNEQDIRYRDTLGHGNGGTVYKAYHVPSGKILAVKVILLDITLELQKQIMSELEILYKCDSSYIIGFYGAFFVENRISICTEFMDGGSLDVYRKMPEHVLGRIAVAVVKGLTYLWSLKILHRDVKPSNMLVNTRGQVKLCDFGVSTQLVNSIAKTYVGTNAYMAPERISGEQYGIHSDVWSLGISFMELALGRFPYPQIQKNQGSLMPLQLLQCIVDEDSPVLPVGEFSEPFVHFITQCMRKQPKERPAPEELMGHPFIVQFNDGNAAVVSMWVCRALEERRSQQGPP
Method: as §1, §2, §3, §4

[4] = target: T4, kinases of the scanMAX Kinase assay panel (Homo sapiens, UniProt P41743); conditions: PRKCI; 1 uM
T4 construct: purchased DiscoverX Co. (contract measurement) scanMAX Kinase assay panel
T4 sequence (P41743 1-596): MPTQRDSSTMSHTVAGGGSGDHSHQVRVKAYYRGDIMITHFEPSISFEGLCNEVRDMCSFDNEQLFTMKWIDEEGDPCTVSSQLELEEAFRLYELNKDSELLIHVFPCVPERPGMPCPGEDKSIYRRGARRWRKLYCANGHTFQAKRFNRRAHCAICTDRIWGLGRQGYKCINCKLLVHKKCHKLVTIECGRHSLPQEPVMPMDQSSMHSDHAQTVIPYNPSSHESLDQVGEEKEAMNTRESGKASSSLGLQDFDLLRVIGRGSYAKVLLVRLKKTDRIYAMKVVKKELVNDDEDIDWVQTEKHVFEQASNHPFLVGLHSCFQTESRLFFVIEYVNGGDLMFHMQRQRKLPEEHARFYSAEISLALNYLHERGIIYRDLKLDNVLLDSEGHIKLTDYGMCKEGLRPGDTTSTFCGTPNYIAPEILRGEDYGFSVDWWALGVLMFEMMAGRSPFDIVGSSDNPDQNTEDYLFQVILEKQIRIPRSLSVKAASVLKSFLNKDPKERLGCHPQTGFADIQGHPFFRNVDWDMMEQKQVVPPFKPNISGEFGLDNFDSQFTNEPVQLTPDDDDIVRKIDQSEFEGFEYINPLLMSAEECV
Method: as §1, §2, §3, §4

[5] = target: T5, kinases of the scanMAX Kinase assay panel (Homo sapiens, UniProt Q13976); conditions: PRKG1; 1 uM
T5 construct: purchased DiscoverX Co. (contract measurement) scanMAX Kinase assay panel
T5 sequence (Q13976 1-671): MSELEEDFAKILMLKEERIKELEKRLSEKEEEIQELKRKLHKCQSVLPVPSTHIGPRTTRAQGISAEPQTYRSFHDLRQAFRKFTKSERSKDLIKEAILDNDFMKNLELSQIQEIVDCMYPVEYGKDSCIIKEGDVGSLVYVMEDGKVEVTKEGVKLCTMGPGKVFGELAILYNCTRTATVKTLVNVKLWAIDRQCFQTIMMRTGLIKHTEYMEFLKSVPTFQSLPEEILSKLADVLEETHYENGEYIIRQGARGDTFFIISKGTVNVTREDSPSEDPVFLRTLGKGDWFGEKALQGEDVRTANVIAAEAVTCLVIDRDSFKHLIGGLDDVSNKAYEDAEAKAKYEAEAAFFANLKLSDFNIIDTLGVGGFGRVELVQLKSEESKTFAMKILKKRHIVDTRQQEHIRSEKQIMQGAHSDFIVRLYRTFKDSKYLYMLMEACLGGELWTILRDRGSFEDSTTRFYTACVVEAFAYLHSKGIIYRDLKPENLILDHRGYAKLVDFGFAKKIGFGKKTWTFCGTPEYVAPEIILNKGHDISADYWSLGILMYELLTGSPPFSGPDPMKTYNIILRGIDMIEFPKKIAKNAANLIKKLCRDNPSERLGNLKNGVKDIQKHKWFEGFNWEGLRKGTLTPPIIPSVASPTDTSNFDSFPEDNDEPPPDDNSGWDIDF
Method: as §1, §2, §3, §4

T2 sequence (P08581 25-1390 M1250T): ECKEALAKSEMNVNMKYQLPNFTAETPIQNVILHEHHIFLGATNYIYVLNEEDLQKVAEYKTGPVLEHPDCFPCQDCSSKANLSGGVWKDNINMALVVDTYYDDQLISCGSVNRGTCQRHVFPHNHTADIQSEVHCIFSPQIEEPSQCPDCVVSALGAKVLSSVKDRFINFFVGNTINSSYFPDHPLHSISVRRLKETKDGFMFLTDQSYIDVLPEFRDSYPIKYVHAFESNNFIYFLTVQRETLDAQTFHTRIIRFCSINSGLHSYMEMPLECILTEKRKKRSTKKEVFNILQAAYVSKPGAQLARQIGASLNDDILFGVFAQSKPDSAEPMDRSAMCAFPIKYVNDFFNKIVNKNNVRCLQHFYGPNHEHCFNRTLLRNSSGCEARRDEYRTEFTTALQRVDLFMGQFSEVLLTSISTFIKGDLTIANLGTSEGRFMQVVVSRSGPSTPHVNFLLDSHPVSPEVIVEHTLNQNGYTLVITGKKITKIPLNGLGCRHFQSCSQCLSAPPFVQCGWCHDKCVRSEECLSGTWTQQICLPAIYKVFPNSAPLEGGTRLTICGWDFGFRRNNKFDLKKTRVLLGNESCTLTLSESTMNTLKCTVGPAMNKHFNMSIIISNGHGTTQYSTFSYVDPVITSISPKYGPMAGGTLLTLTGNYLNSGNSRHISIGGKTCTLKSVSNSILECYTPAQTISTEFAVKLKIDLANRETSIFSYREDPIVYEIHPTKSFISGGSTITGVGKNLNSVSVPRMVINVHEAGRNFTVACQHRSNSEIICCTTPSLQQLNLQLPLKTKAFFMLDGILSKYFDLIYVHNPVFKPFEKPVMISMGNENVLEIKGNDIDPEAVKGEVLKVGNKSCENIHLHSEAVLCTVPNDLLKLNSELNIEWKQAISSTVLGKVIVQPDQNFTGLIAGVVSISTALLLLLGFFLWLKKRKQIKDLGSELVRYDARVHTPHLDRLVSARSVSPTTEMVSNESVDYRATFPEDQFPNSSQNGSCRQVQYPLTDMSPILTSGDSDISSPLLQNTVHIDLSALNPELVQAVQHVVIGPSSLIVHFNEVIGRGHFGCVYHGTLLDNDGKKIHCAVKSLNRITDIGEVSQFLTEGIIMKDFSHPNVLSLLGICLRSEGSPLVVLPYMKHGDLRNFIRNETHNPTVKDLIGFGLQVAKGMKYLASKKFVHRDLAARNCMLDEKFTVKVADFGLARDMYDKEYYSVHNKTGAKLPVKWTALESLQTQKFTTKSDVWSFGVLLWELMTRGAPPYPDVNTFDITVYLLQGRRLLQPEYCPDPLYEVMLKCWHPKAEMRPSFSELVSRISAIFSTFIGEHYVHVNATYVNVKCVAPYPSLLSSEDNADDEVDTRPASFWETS
T1 sequence (Q9UIK4 whole entry): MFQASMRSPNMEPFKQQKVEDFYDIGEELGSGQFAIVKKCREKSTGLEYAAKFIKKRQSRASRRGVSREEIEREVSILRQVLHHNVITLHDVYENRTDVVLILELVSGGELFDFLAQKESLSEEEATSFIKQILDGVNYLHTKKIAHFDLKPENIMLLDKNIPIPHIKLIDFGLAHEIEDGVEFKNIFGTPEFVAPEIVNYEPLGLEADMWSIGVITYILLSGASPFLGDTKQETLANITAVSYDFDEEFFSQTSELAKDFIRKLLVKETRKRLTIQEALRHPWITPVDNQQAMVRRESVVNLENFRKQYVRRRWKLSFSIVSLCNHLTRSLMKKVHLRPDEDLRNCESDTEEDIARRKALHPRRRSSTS

CCNc1nc(Nc2ccc(C(=O)N3CCC(N4CCOCC4)CC3)cc2OC)nc2[nH]cc(C(F)(F)F)c12 [Example 104, (4-((4-(ethylamino)-5-(trifluoromethyl)-7H-pyrrolo[2,3-d]pyrimidine-2-yl)amino)-3-methoxyphenyl)(4-morpholinopiperidine-1-yl)methanone]
remaining binding at 1 µM [1]: 35% | remaining binding at 1 µM [2]: 100% | remaining binding at 1 µM [3]: 74% | remaining binding at 1 µM [4]: 53% | remaining binding at 1 µM [5]: 84%

CC1(Nc2nc(Nc3cnn([C@H]4CCN(C5COC5)C[C@@H]4F)c3Cl)nc3[nH]cc(C#N)c23)CC1 [Example 52, 2-((5-chloro-1-((3S,4S)-3-fluoro-1-(oxetane-3-yl)piperidine-4-yl)-1H-pyrazole-4-yl)amino)((1-methylcyclopropyl)amino)-7H-pyrrolo[2,3-d]pyrimidine-5-carbonitrile]
remaining binding at 1 µM [1]: 12% | remaining binding at 1 µM [2]: 28% | remaining binding at 1 µM [3]: 0.05% | remaining binding at 1 µM [4]: 89% | remaining binding at 1 µM [5]: 79%

CNc1nc(Nc2ccc(C(=O)N3CCOCC3)cc2OC)nc2[nH]cc(C#N)c12 [Example 1, 2-((2-methoxy-4-(morpholine-4-carbonyl)phenyl)amino)-4-(methylamino)-7H-pyrrolo[2,3-d]pyrimidine-5-carbonitrile]
remaining binding at 1 µM [1]: 11% | remaining binding at 1 µM [2]: 100% | remaining binding at 1 µM [3]: 47% | remaining binding at 1 µM [4]: 96% | remaining binding at 1 µM [5]: 83%
